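Briefly, cells in 96-well plates were exposed to five compound concentrations for 48 h, and endpoints were estimated by linear interpolation. GI50 marks 50% less growth. TGI marks complete inhibition of growth.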
How the values were obtained:
Assay in all cases: DTP human tumour cell line panel, 48 h
CCRF-CEM leukemia = tested on: CCRF-CEM leukemia
HOP-92 NSCLC = tested on: HOP-92 NSCLC
IGROV1 ovarian = tested on: IGROV1 ovarian
K-562 leukemia = tested on: K-562 leukemia
MALME-3M melanoma = tested on: MALME-3M melanoma
NCI-H23 lung = tested on: NCI-H23 lung
NCI-H522 lung = tested on: NCI-H522 lung
RXF 393 renal = tested on: RXF 393 renal
SNB-19 CNS = tested on: SNB-19 CNS
SNB-75 CNS = tested on: SNB-75 CNS
UACC-257 melanoma = tested on: UACC-257 melanoma
UACC-62 melanoma = tested on: UACC-62 melanoma
KM12 colon = tested on: KM12 colon
BT-549 breast = tested on: BT-549 breast

Compound	TGI (CCRF-CEM leukemia) [µM]	TGI (HOP-92 NSCLC) [µM]	TGI (IGROV1 ovarian) [µM]	TGI (K-562 leukemia) [µM]	TGI (MALME-3M melanoma) [µM]	TGI (NCI-H23 lung) [µM]	TGI (NCI-H522 lung) [µM]	TGI (RXF 393 renal) [µM]	TGI (SNB-19 CNS) [µM]	TGI (SNB-75 CNS) [µM]	TGI (UACC-257 melanoma) [µM]	TGI (UACC-62 melanoma) [µM]	TGI (KM12 colon) [µM]	TGI (BT-549 breast) [µM]	GI50 (HOP-92 NSCLC) [µM]	GI50 (KM12 colon) [µM]
O=C(c1ccccc1)C1(Br)S(=O)(=O)OCCOS1(=O)=O	> 100	> 100	> 100	> 100	> 100	> 100	> 100	> 100	> 100	> 100	> 100	> 100				
C[C@@H]1CC[C@]2(C)C3(C)CC[C@]2(OC3=O)[C@@]12CC(c1ccoc1)OC2=O (some centres undefined)	65.9	69.2	64.7	76.3	41.2	> 100	4.46	46.9	> 100			> 100	> 100			
CCOC(=O)C1S(=O)(=O)OCCOS1(=O)=O	> 100	> 100	> 100	> 100	> 100	> 100	> 100		> 100	> 100	> 100	> 100	> 100			
CCOC(=O)C1(C/C=C\CBr)CCCC1=O (centres undefined)			> 100		> 100	56.7	46.8	31.3	> 100	> 100	> 100	39.8	> 100	80.3		
COc1ccc(-c2c(C3=NCCCN3)nnn2-c2ccccc2)cc1	> 100	> 100	> 100	> 100	> 100	> 100	> 100	> 100	> 100	> 100	> 100	> 100	> 100			
Cc1[nH]n(-c2nc3c(c(=O)[nH]2)CCCC3)c(=O)c1CCO	> 100		> 100	> 100	> 100	> 100	> 100	> 100	> 100		> 100	> 100	> 100			
CCCCCCCCOCC(COC(=O)CCCCCCC)OC(=O)CCCCCCC (centres undefined)	> 100	> 100	> 100	> 100	> 100	> 100			> 100		> 100	> 100				
CCOC(=O)/C(=C/c1ccccn1)C(=O)c1ccccc1	> 31	21.1	32.8	85	27.3	30.5	13.8	24.2	31.8	27.5	27.9	24	26.4			
O=C1CC(c2ccc(Cl)cc2)=Nc2ccccc2N1	41.9	71.1	> 100	> 100	> 100	> 100	> 100	61.4	> 100	50.2	> 100	> 100	> 100			
Oc1c(N2CCCCC2)cc(-c2cc(N3CCCCC3)c(O)c3ccccc23)c2ccccc12	> 100	70.4	> 100	> 100	24.3	79.7		77.7	> 100		28.5	51.6	> 100			
CSc1nncc(-c2cc3c(c(SC)n2)CCCC3)n1	> 100			> 100		> 100	> 100	> 100	> 100	> 100	> 100	> 100	> 100	> 100		
CC(C)(CN1CCCCC1)C(=O)/C=C/c1ccc(Br)cc1	9.34	4.1	6.48	8.95	17.4	9.11	3.98	4.48	4.75	14.9	20.3	> 22.9	11.9			
COc1ccc2ccccc2c1C1=NC(C)(C)CO1	> 100	> 100	> 100	> 100	> 100	> 100	> 100	> 100	> 100	> 100	> 100	> 100	> 100			
O=C1CC(c2cccc(Cl)c2)Nc2ccc(N3CCCC3)cc21 (centres undefined)		> 100		0.017			0.0677	0.0845	> 100		> 100		0.117		0.135	0.0153
COC(=O)[C@@]12OC[C@]34C([C@@H](O)C1O)[C@@]1(C)CC(=O)C(OC(=O)CC(C)C(F)(F)F)=C(C)C1C[C@H]3OC(=O)[C@H](O)[C@H]42 (some centres undefined)	> 62.5	23.1	45.5	> 62.5	3.69	8.69	24.5	23.6	22.4	31.4	35.3	4.37	> 62.5			
COC(=O)C(C(=O)C(=O)Nc1c(Cl)cc([N+](=O)[O-])cc1Cl)c1csc(-n2nc(C3=CCCCC3)cc2-c2ccccc2)n1 (centres undefined)	> 100	77.7		> 100	> 100		> 100	> 100	> 100	> 100	> 100	> 100	> 100			
NC1=NC(Cn2nc(-c3ccccc3)c3ccccc3c2=O)=NNC(=O)N1	> 100	> 100	> 100	> 100	> 100	> 100	> 100		> 100	> 100	> 100	> 100	> 100			
Cc1c(C)c(S(=O)(=O)N(CCCCN)OCCCN)c(C)c2c1OC(C)(C)CC2	98.3	80.6	20.2	> 100		38.1	34.1		37.3	32.7	61.4	72.2	42.8			
